Test results from PMC10649961, “Novel Mitochondria-Targeted Amphiphilic Aminophosphonium Salts and Lipids Nanoparticles: Synthesis, Antitumor Activity and Toxicity” (Nanomaterials, 2023).

Key:
HuTu 80 cells [1] = test: Mitochondrial membrane potential, JC-10 flow cytometry; format: cell-based, human; conditions: HuTu 80, 48-h treatment
Experimental: The cells are prepared as in the Cell Apoptosis Assay section. Cells were detached with trypsin/versene solution (1:3), suspended in PBS, collected at 2000 rpm for 5 min, then washed twice with ice-cold PBS, followed by resuspension in JC-10 (10 μg/mL) and incubation at 37 °C for 10 min. The cells were then washed three times and suspended in PBS, and JC-10 fluorescence was observed by flow cytometry (Guava Easy Cyte).
Most forms of apoptosis in mammals are realized not through cell death receptors but through the mitochondrial pathway. In this case, the outer membrane of the mitochondria breaks, and soluble proteins of the intermembrane space enter the cytoplasm. The permeability of the outer membrane of mitochondria is a finely regulated process, and its increase is a key event in triggering apoptosis. Induction of apoptosis by compounds 4b, 5b, 6a, and 8 at concentrations of IC50/2 and IC50 via the mitochondrial pathway on the HuTu 80 cell line was studied by flow cytometry using the fluorescent dye JC-10 from the Mitochondria Membrane Potential Kit.

[2] = In vivo acute toxicity, single intraperitoneal injection; design: species or system mice; conditions: male, CD-1, mouse, in vivo, ip, male CD-1 mice, single intraperitoneal administration, 14 days, Probit analysis
Experimental: (§1) The study of acute toxicity was performed on males of outbred white mice of the CD-1 line at the age of 2–3 months, weighing 20–30 g. The total number of mice participating in the experiment was 300. Mice were obtained from the Research and Production Enterprise Laboratory Animal Farm based at the Branch of Shemyakin and Ovchinnikov Institute of Bioorganic Chemistry of the Russian Academy of Sciences (Pushchino, Russia). The animals were kept in accordance with in standard conditions in a vivarium with 12 h of daylight and free access to food and water. The animals were fed complete feed made according to specifications (protein 22%, fiber 4% max., fat 5% max, ash 9% max, humidity 13.5% max, caloric value 295 kcal/100 g). The studies were conducted with a single parenteral–intraperitoneal (intra-peritoneal) injection, according to the method.
(§2) The substances were introduced in a sterile saline DMSO (40% vol.) solution. Solutions of the substances were prepared immediately before administration. The total volume of the injected liquid was 0.1 mL/10 g of animal weight. As a control, a group of mice was administered under similar conditions an equivalent amount (0.1 mL/10 g, or 10 mL/kg) of a solvent—40% DMSO on sterile saline solution. The substances were administered in doses ranging from 1 to 100 mg/kg; there were six animals in each group. To assess acute toxicity, the animals were monitored 14 days after administration of the substance, assessing their general condition and recording deaths.
(§3) The study of the acute toxicity parameters of six aminophosphonium salts 4a, 4b, 4d, 5a, 5b, and 6b was performed on male outbreed white mice of the CD-1 line. Acute toxicity was determined with a single parenteral (intraperitoneal) administration in sterile saline/DMSO (40% vol.) solution at doses from 1 to 100 mg/kg. To assess acute toxicity, the animals were monitored for 14 days after the introduction of substances, assessing their general condition and recording deaths. Next, lethal doses LD50, LD0, LD16, LD84, and LD100 were calculated using the Probit analysis method. LD0, LD16, LD84, and LD100 are given in Supplementary Material (Table S1).

mice of the CD-1 line = test: as above; conditions: for onset of animal death after administration: doses of LD100; for acute toxicity class: according to the classification [105], parenteral administration
Experimental: as §1, §2, §3

HuTu 80 cells [3] = test: Intracellular ROS, CellROX Deep Red flow cytometry; format: cell-based, human; conditions: HuTu 80, IC50/2 and IC50, compared with the control
Experimental: ROS generation was investigated using a flow cytometry assay and the CellROX® Deep Red flow cytometry kit. For this, HuTu 80 cells were harvested at 2000 rpm for 5 min and then washed twice with ice-cold PBS, followed by resuspension in 0.1 mL of medium without FBS, to which was added 0.2 μL of CellROX® Deep Red and incubated at 37 °C for 30 min. After three washes, cells were suspended in PBS, and the cell production of ROS was immediately monitored using a flow cytometer (Guava easy Cyte).

HuTu 80 cells [4] = test: Cell cycle analysis, propidium iodide flow cytometry; format: cell-based, human; conditions: HuTu 80, IC50, 48 h, compared with the control
Experimental: The DNA content and cell-cycle distribution after compounds 4b, 5b, 6a, and 8 IC50 concentrations were estimated by flow cytometry. After washing with PBS, treated cells were suspended in 150 μL of PBS, then 0.5 mL of phosphate-citrate buffer (0.05 M, pH 4.0) was added, and the suspension was incubated at room temperature for 5 min to facilitate the extraction of low-molecular-weight DNA. Following centrifugation, the cells were resuspended in 150 μL DNA staining solution (20 μg/mL propidium iodide, 200 μg/mL […]) and incubated in the CO2 incubator (37 °C for 30 min). The distribution of the cell cycle was determined by fluorescence analysis of HuTu 80 cells stained with propidium iodide using Guava easyCyte (Guava easyCyte).

PC3 = test: cells; conditions: Homo sapiens, PC-3, 48 h, read-out: Cytotoxic Effects (IC50), PC3, MTT assay, 48 h
[5] = test system: human volunteer donor erythrocytes; test: Hemolytic assay; format: cell-based; conditions: hemolysis in 50% of human erythrocytes, 1 h, 37 °C
Experimental: The hemolytic activity of Aminophosphonium Salts was assessed by comparing the optical density of a solution containing the test compound with the optical density of blood at 100% hemolysis. Healthy human volunteer donor erythrocytes were used as the object of the study. Red blood cells with EDTA (1.8 mg/mL) were washed three times with saline (0.9% NaCl), centrifuged for 10 min at 800× g rpm, and resuspended in saline (0.9% NaCl) to a concentration of 10%. The tested concentrations (0.1–100 μM) were prepared in physiological solution (0.9% NaCl) (with the addition of 5% DMSO). Compounds at the appropriate dilution (450 μL) were added to 50 μL of a 10% red blood cell suspension. Samples were incubated for 1 h at 37 °C and centrifuged for 10 min at 2000 rpm. The release of hemoglobin was controlled by measuring the optical density of the supernatant on an InvitroLogic microplate reader at λ = 540 nm. A control sample corresponding to zero hemolysis (blank experiment) was prepared by adding 50 μL of a 10% red blood cell suspension to 450 μL of saline (0.9% NaCl). A control sample corresponding to 100% hemolysis was prepared by adding 50 μL of a 10% red blood cell suspension to 450 μL of distilled water. Blood was taken at the Clinic of the Federal Research Center “Kazan Scientific Center of the Russian Academy of Sciences” from healthy donors with their personal consent.

Row | Compound | effect on mitochondrial membrane potential (in words) (HuTu 80 cells [1]) | LD50 at 14 days [2] [mg/kg] | onset of animal death after administration (mice of the CD-1 line; CD-1 mice, i.p.) [h] | acute toxicity class (mice of the CD-1 line) | ROS production, CellROX Deep Red fluorescence (in words) (HuTu 80 cells [3]) | effect on cell cycle (in words) (HuTu 80 cells [4]) | IC50 (PC3) [µM] | HC50 [5] [µM] | LD50 (mice of the CD-1 line; male CD-1 mice, single intraperitoneal administration, 14 days, Probit analysis) | death in animals (mice of the CD-1 line; CD-1 mice, i.p., dose of 150 mg/kg) [%] | time to death (mice of the CD-1 line; CD-1 mice, i.p., doses of 200 and 400 mg/kg) [min]
1 | CCCCCCCC[P+](N(CC)CC)(N(CC)CC)N(CC)CC [4b, Tris(diethylamino)(octyl)phosphonium iodide] | decrease in the mitochondrial membrane potential | 43.4 | 1 to 2 | moderately toxic | increase in the fluorescence intensity | significant delay of cells in the G0/G1 phase | 11.6 ± 0.9 | >100 |  |  | 
2 | CCCCCCCCCC[P+](N(CC)CC)(N(CC)CC)N(CC)CC [4d, Decyltris(diethylamino)phosphonium iodide] |  | 6.9 | 1 to 2 | highly toxic |  |  | 7.3 ± 0.6 |  | 5.9 (3.7÷7.6) mg/kg |  | 
3 | CCCCCCCC[P+](c1ccccc1)(N(CC)CC)N(CC)CC [5b, Bis(diethylamino)(octyl)(phenyl)phosphonium iodide] | decrease in the mitochondrial membrane potential | 27.9 | 1 to 2 | moderately toxic | increase in the fluorescence intensity | significant delay of cells in the G0/G1 phase | 11.4 ± 0.9 | >100 |  |  | 
4 | CCCCCC[P+](c1ccccc1)(c1ccccc1)N(CC)CC [6a, (Diethylamino)(hexyl)diphenylphosphonium iodide] | decrease in the mitochondrial membrane potential |  |  |  | increase in the fluorescence intensity | slight change in the cell cycle | 4 ± 0.3 | > 100 |  |  | 
5 | CCCCCCCC[P+](c1ccccc1)(c1ccccc1)N(CC)CC [6b, (Diethylamino)(octyl)diphenylphosphonium iodide] |  | 102 |  | moderately toxic |  |  |  | >100 |  | 100 | ≤ 10
6 | CCCCCCCC[P+](c1ccccc1)(c1ccccc1)c1ccccc1 [compound 8, Octyltriphenylphosphonium iodide, reference compound] | decrease in the mitochondrial membrane potential |  |  |  | increase in the fluorescence intensity | significant delay of cells in the G0/G1 phase | 0.4 ± 0.03 |  |  |  | 
